Where “and” joins values, the source holds several entries; their conditions need not be identical. Equal values may be shown once. Marks after values point to notes of the source that are not given here. Square brackets hold non-standard residues; d marks the D form. Peptide text beside a SMILES is read from it. * marks the point of attachment. dPhe(4-NHCONH2) = NC(=O)Nc1ccc(C[C@@H](N)C(=O)O)cc1; Dihydroorotyl(S) = O=C1C[C@@H](C(=O)*)NC(=O)N1; dPhe(4-Cl) = N[C@H](Cc1ccc(Cl)cc1)C(=O)O; Phe(4-NH2) = Nc1ccc(C[C@H](N)C(=O)O)cc1; d2Nal = N[C@H](Cc1ccc2ccccc2c1)C(=O)O; Lys(iPr) = CC(C)NCCCC[C@H](N)C(=O)O; d3Pal = N[C@H](Cc1cccnc1)C(=O)O
Test: CS21 safety: treatment-emergent adverse events (MedDRA SOC/PT), crude incidence, also by subgroup
Format: in vivo
Description: The safety variables for this study were assessed on the following: the frequency and severity of adverse events (AEs); the presence of clinically significant changes in laboratory parameters (clinical chemistry, hematology and urinalysis); changes in electrocardiograms (ECGs) and vital signs; changes detected by physical examination; and body weight.
An AE was therefore any unfavorable or unintended sign (including an abnormal laboratory finding), symptom or disease temporally associated with the use of the product, whether or not related to the IMP.
An adverse drug reaction (ADR) was defined as an AE evaluated by the investigator as being probably or possibly related to treatment with the IMP.
AEs were graded according to the National Cancer Institute (NCI) Common Terminology Criteria for Adverse Events (CTCAE). In accordance with the CTCAE criteria, AEs were rated on a five-point scale corresponding to mild, moderate, severe, life-threatening or disabling and death. For those AEs not described in the CTCAE, a separate five-point rating scale was used for rating of the intensity of AEs as follows below:
Safety parameters were evaluated for all patients included in the ITT analysis set, comprising all 610 randomized patients who received at least one dose of study medication. All safety tables include four columns: the three treatment groups described separately, and the pooled degarelix group.
Adverse events were regarded as ‘treatment-emergent’ if they occurred in the time interval from initial dosing to end-of-study. Adverse events were considered ‘pre-treatment’ if they occurred between screening and the initial injections of IMP. As described above, all AEs were classified according to MedDRA (version 10.0) system organ class (SOC), sorted alphabetically, and by preferred term (PT), in decreasing frequency of occurrence. Treatment-emergent AEs were expressed in terms of intensity (using NCI CTCAE) and relationship to study drug.
Using the results from the summary of clinical efficacy (SCE) and summary of clinical safety (SCS) findings, different patient subgroups were analyzed. Subgroup distinguishers included race (white, black, and other), age (<65 years, […], and >75 years), weight (<70 kg, ≥70−<90 kg, and ≥90 kg), body mass index (BMI) (≤20, >20 to 30, and >30 kg/m^2)), region (North-America, Western Europe, Central and Eastern Europe and Other), and stage of prostate cancer (e.g., localized, locally advanced, and metastatic).

[1] = degarelix 240/160 mg, listed as degarelix
[2] = degarelix Total (pooled), leuprolide 7.5 mg
[3] = degarelix Total (pooled), leuprolide 7.5 mg, listed as degarelix
[4] = degarelix pooled, LUPRON DEPOT 7.5 mg
[5] = degarelix pooled, LUPRON DEPOT 7.5 mg, listed as degarelix
[6] = pooled degarelix, leuprolide 7.5 mg

SMILES: CC(=O)N[C@H](Cc1ccc2ccccc2c1)C(=O)N[C@H](Cc1ccc(Cl)cc1)C(=O)N[C@H](Cc1cccnc1)C(=O)N[C@@H](CO)C(=O)N[C@@H](Cc1ccc(NC(=O)[C@@H]2CC(=O)NC(=O)N2)cc1)C(=O)N[C@H](Cc1ccc(NC(N)=O)cc1)C(=O)N[C@@H](CC(C)C)C(=O)N[C@@H](CCCCNC(C)C)C(=O)N1CCC[C@H]1C(=O)N[C@H](C)C(N)=O [Degarelix, D-Alaninamide, N-acetyl-3-(2-naphthalenyl)-D-alanyl-4-chloro-D-phenylalanyl-3-(3-pyridinyl)-D-alanyl-L-seryl-4-[[[(4S)-hexahydro-2,6-dioxo-4-pyrimidinyl]carbonyl]amino]-L phenylalanyl-4-[(aminocarbonyl)amino]-D-phenylalanyl-L leucyl-N6-(1-methylethyl)-L-lysyl-L-prolyl] (Ac-[d2Nal][dPhe(4-Cl)][d3Pal]S[Phe(4-NH2)](Dihydroorotyl(S))[dPhe(4-NHCONH2)]L[Lys(iPr)]P[dA]-NH2)
- AEs leading to discontinuation, % of patients (degarelix 240/160 mg): 9%
- AEs leading to discontinuation, E events (degarelix 240/160 mg): 19
- AEs leading to discontinuation, N patients (degarelix 240/160 mg): 19
- Alanine aminotransferase increased, % of patients (degarelix 240/160 mg): ( 8%)
- All AEs, E = number of adverse events (degarelix 240/160 mg): 941
- All AEs, N = number of patients (degarelix 240/160 mg): 167
- Arthralgia, % of patients (degarelix 240/160 mg): ( 3%)
- Aspartate aminotransferase increased, % of patients (degarelix 240/160 mg): ( 5%)
- Back pain, % of patients (degarelix 240/160 mg): ( 6%)
- Blood & lymphatic system disorders, % of patients (degarelix 240/160 mg): ( 5%)
- Cardiac disorders, % of patients (degarelix 240/160 mg): ( 9%)
- Chills, % of patients (degarelix 240/160 mg): ( 3%)
- Constipation, % of patients (degarelix 240/160 mg): ( 3%)
- Deaths (Grade 5), % of patients (degarelix 240/160 mg): 2%
- Deaths (Grade 5), E events (degarelix 240/160 mg): 6
- Deaths (Grade 5), N patients (degarelix 240/160 mg): 5
- Ear & labyrinth disorders, % of patients (degarelix 240/160 mg): ( 1%)
- Endocrine disorders, % of patients (degarelix 240/160 mg): (<1%)
- Eye disorders, % of patients (degarelix 240/160 mg): ( 2%)
- Fatigue, % of patients (degarelix 240/160 mg): ( 6%)
- Gastrointestinal disorders, % of patients (degarelix 240/160 mg): (16%)
- General disorders & administration site conditions, % of patients (degarelix 240/160 mg): (50%)
- Hepatobiliary disorders, % of patients (degarelix 240/160 mg): (<1%)
- Hot flush, % of patients (degarelix 240/160 mg): (26%)
- Hypercholesterolaemia, % of patients (degarelix 240/160 mg): ( 6%)
- Hypertension, % of patients (degarelix 240/160 mg): ( 7%)
- Immune system disorders, % of patients (degarelix 240/160 mg): (<1%)
- Infections & infestations, % of patients (degarelix 240/160 mg): (19%)
- Injection site erythema, % of patients (degarelix 240/160 mg): (24%)
- Injection site induration, % of patients (degarelix 240/160 mg): ( 5%)
- Injection site nodule, % of patients (degarelix 240/160 mg): ( 6%)
- Injection site pain, % of patients (degarelix 240/160 mg): (30%)
- Injection site swelling, % of patients (degarelix 240/160 mg): ( 7%)
- Injury, poisoning & procedural complications, % of patients (degarelix 240/160 mg): ( 5%)
- Investigations, % of patients (degarelix 240/160 mg): (29%)
- Metabolism & nutrition disorders, % of patients (degarelix 240/160 mg): (13%)
- Musculoskeletal & connective tissue disorders, % of patients (degarelix 240/160 mg): (18%)
- Nausea, % of patients (degarelix 240/160 mg): ( 5%)
- Neoplasms benign, malignant & unspecified, % of patients (degarelix 240/160 mg): ( 6%)
- Nervous system disorders, % of patients (degarelix 240/160 mg): (13%)
- Psychiatric disorders, % of patients (degarelix 240/160 mg): ( 8%)
- Renal & urinary disorders, % of patients (degarelix 240/160 mg): (13%)
- Reproductive system & breast disorders, % of patients (degarelix 240/160 mg): ( 6%)
- Respiratory, thoracic & mediastinal disorders, % of patients (degarelix 240/160 mg): ( 8%)
- Serious AEs, % of patients (degarelix 240/160 mg): 12%
- Serious AEs, E events (degarelix 240/160 mg): 41
- Serious AEs, N patients (degarelix 240/160 mg): 24
- Skin & subcutaneous tissue disorders, % of patients (degarelix 240/160 mg): (10%)
- Surgical & medical procedures, % of patients (degarelix 240/160 mg): (<1%)
- Urinary tract infection, % of patients (degarelix 240/160 mg): ( 1%)
- Vascular disorders, % of patients (degarelix 240/160 mg): (32%)
- Weight increased, % of patients (degarelix 240/160 mg): (11%)
- Hot flush, % of patients [1]: 26%
- Treatment-emergent adverse events (all AEs), % of patients [1]: 83%
- Injection site erythema, % of patients (degarelix Total (pooled)): (21%)
- Injection site induration, % of patients (degarelix Total (pooled)): ( 5%)
- Injection site nodule, % of patients (degarelix Total (pooled)): ( 5%)
- Injection site swelling, % of patients (degarelix Total (pooled)): ( 7%)
- Surgical & medical procedures, % of patients (degarelix Total (pooled)): (<1%)
- ADRs, % of patients [2]: 58%
- ADRs, E events [2]: 922
- ADRs, N patients [2]: 238
- AEs leading to discontinuation, % of patients [2]: 8%
- AEs leading to discontinuation, E events [2]: 34
- AEs leading to discontinuation, N patients [2]: 34
- Alanine aminotransferase increased, % of patients [2]: ( 9%)
- All AEs, E = number of adverse events [2]: 1878
- All AEs, N = number of patients [2]: 330
- Aspartate aminotransferase increased, % of patients [2]: ( 5%)
- Back pain, % of patients [2]: ( 6%)
- Cardiac disorders, % of patients [2]: ( 9%)
- Chills, % of patients [2]: ( 4%)
- Constipation, % of patients [2]: ( 4%)
- Deaths (Grade 5), % of patients [2]: 2%
- Deaths (Grade 5), E events [2]: 11
- Deaths (Grade 5), N patients [2]: 10
- Ear & labyrinth disorders, % of patients [2]: ( 2%)
- Endocrine disorders, % of patients [2]: ( 1%)
- Eye disorders, % of patients [2]: ( 2%)
- Fatigue, % of patients [2]: ( 5%)
- Gastrointestinal disorders, % of patients [2]: (17%)
- General disorders & administration site conditions, % of patients [2]: (47%)
- Hepatobiliary disorders, % of patients [2]: (<1%)
- Hot flush, % of patients [2]: (26%)
- Hypercholesterolaemia, % of patients [2]: ( 5%)
- Hypertension, % of patients [2]: ( 6%)
- Immune system disorders, % of patients [2]: (<1%)
- Infections & infestations, % of patients [2]: (20%)
- Injection site pain, % of patients [2]: (29%)
- Injury, poisoning & procedural complications, % of patients [2]: ( 5%)
- Metabolism & nutrition disorders, % of patients [2]: (10%)
- Nausea, % of patients [2]: ( 5%)
- Neoplasms benign, malignant & unspecified, % of patients [2]: ( 5%)
- Nervous system disorders, % of patients [2]: (12%)
- Psychiatric disorders, % of patients [2]: ( 8%)
- Renal & urinary disorders, % of patients [2]: (13%)
- Respiratory, thoracic & mediastinal disorders, % of patients [2]: (10%)
- Serious AEs, % of patients [2]: 11%
- Serious AEs, E events [2]: 67
- Serious AEs, N patients [2]: 45
- Skin & subcutaneous tissue disorders, % of patients [2]: (10%)
- Vascular disorders, % of patients [2]: (33%)
- Weight increased, % of patients [2]: (10%)
- Arthralgia, % of patients [3]: 4% and 4.2%
- Back pain, % of patients [3]: 6%
- Cardiac disorders, % of patients [3]: 9%
- Gastrointestinal disorders, % of patients [3]: 17%
- General disorders & administration site conditions, % of patients [3]: 47%
- Infections & infestations, % of patients [3]: 20%
- Injection site pain, % of patients [3]: 29%
- Investigations, % of patients [3]: 27%
- Musculoskeletal & connective tissue disorders, % of patients [3]: 17%
- Renal & urinary disorders, % of patients [3]: 13%
- Reproductive system & breast disorders, % of patients [3]: 5%
- Treatment-emergent adverse events (all AEs), % of patients [3]: 81%
- Urinary tract infection, % of patients [3]: 3%
- Vascular disorders, % of patients [3]: 33%
- Myocardial Infarction (PT), % of patients (degarelix combined, LUPRON DEPOT 7.5 mg): 0.5%
- Deep vein thrombosis, N patients (degarelix pooled): 0
- Libido decreased, N patients (degarelix pooled): 0
- Cardiac murmur, % of patients [4]: 0%
- Chest pain, % of patients [4]: (<1%)*
- Cystitis noninfective, % of patients [4]: 0%
- Deep vein thrombosis, % of patients [4]: 0%
- Erectile dysfunction, % of patients [4]: (1%)*
- Libido decreased, % of patients [4]: 0%
- Musculoskeletal stiffness, % of patients [4]: 0%
- Myocardial ischaemia, % of patients [4]: (<1%)*
- Oedema peripheral, % of patients [4]: (2%)*
- Urinary retention, % of patients [4]: (1%)*
- Chest pain, % of patients [5]: 0.5%
- Erectile dysfunction, % of patients [5]: 1% and 1.5%
- Oedema peripheral, % of patients [5]: 2%
- Urinary retention, % of patients [5]: 1.2%
- discontinuations due to injection site adverse events (degarelix s.c., 12 months): < 1%
- immediate onset hypersensitivity reactions (in vivo): no immediate onset hypersensitivity reactions
- ADRs: general disorders and administration site conditions including injection-site reactions, % of patients (pooled degarelix): 42%
- Gynaecomastia, prostatitis or testicular atrophy (each), % of patients (pooled degarelix): 2%
- Hyperhidrosis, % of patients (pooled degarelix): < 1%
- Night sweats, % of patients (pooled degarelix): 1%
- Pelvic pain, % of patients (pooled degarelix): < 1%
- Sweating disorders, % of patients (pooled degarelix): approximately 1%
- Testicular pain, % of patients (pooled degarelix): < 1%
- incidence of all other injection site preferred terms (pooled degarelix): ≤ 0.5 per 100 injections
- incidence of injection site erythema (pooled degarelix): 1.9 per 100 injections
- incidence of injection site pain (pooled degarelix): 2.9 per 100 injections
- incidence of treatment-emergent injection site reactions (pooled degarelix): 4.4 per 100 injections
- injection site reactions which led to withdrawal, % of patients (pooled degarelix): 1.2%
- patients with SAEs that led to withdrawal, number (pooled degarelix): 17
- Hot flushes reported as ADR, % of patients [6]: 25%
- SAEs: cardiac disorders, % of patients [6]: 2%
- SAEs: renal and urinary disorders, % of patients [6]: 2%

From patent publication US11766468B2, “Method of treating prostate cancer with GnRH antagonist” (priority 2012, dated 2023)
